# Source: patent US6383772B1, “Enzymatic conversion in a solvent mixture containing water and flourinated, non-chlorinated solvent” (Advanced Phytonic Limited, priority 1997, dated 2002)
# How the values were obtained:
# [1] = Solubility of 6-APA in Phytosol solvent; format: physicochemical
# [2] = Effect of pH on extraction of PAA from enzymatic liquor with Phytosol D; format: physicochemical; details: 20 ml enzymatic liquor extracted with 40 ml Phytosol D
# Experimental: This example was carried out to assess the efficiency and selectivity of Phytosol D in extracting PAA from the enzymatic liquor at different pH's.
# The enzymatic liquor was prepared as described in Example 1 using the enzyme resin from Example C2.
# 20 ml samples of the liquor were extracted with 40 ml of Phytosol D, at various pH's, using hand held apparatus as follows:
# The apparatus consists of a 100 ml graduated glass tube fitted with a filter assembly and a clamping ring which in turn is fitted with a needle valve. The material or solution to be extracted is charged into the tube. The filter is then assembled with the aid of a sealing O ring followed by the clamping ring ensuring that a tight fit is achieved. Phytosol liquid gas is introduced to the glass tube from an aerosol can via the needle valve. The contents of the tube are mixed by vigorous shaking after which the tube is inverted and allowed to stand until the two layers are separated. The Phytosol is then released via the needle valve into an evaporator bottle taking care not to allow any of the aqueous layer to co-discharge.
# [3] = background statement; cited from earlier work
Structure (SMILES),solubility in the solvent [1],Removed (% of total w/w) ([2]; pH 1.4),Removed (% of total w/w) ([2]; pH 3.8),Removed (% of total w/w) ([2]; pH 5.3),Removed (% of total w/w) ([2]; pH 6.5),Removed (% of total w/w) ([2]; pH 8.0),solubility in water [3]
"CC1(C)S[C@@H]2[C@H](N)C(=O)N2[C@H]1C(=O)O [6-APA, 6-Aminopenicillanic acid]",negligible,<1 % of total w/w,<1 % of total w/w,0 % of total w/w,0 % of total w/w,0 % of total w/w,around 2%
"O=C(O)Cc1ccccc1 [PAA, Phenylacetic acid]",,>99 % of total w/w,>99 % of total w/w,6.5 % of total w/w,<2 % of total w/w,0 % of total w/w,
